# Test results as given in the kinase profiling compilation of Christmann-Franck et al. (2016).
# How the values were obtained:
# Assay in all cases: radiometric filter-binding kinase assay
# CDK2 CCNA2 (human) = CDK2 CCNA2 (human) (UniProt P20248+P24941)
# CHEK1 (human) = CHEK1 (human) (UniProt O14757)
# CSNK2A1 (human) = CSNK2A1 (human) (UniProt P68400)
# DAPK1 (human) = DAPK1 (human) (UniProt P53355)
# EEF2K (human) = EEF2K (human) (UniProt O00418)
# EPHA4 (human) = EPHA4 (human) (UniProt P54764)
# EPHB1 (human) = EPHB1 (human) (UniProt P54762)
# EPHB4 (human) = EPHB4 (human) (UniProt P54760)
# GCK (human) = GCK (human) (UniProt Q12851)
# IKBKB (human) = IKBKB (human) (UniProt O14920)
# INSRR (human) = INSRR (human) (UniProt P14616)
# MAP2K1 (human) = MAP2K1 (human) (UniProt Q02750)
# MAP2K2 (human) = MAP2K2 (human) (UniProt P36507)
# MAP3K5 (human) = MAP3K5 (human) (UniProt Q99683)
# MAP3K9 (human) = MAP3K9 (human) (UniProt P80192)
# MAPK9 (human) = MAPK9 (human) (UniProt P45984); details: compound 10.0 µM
# MAPKAPK2 (human) = MAPKAPK2 (human) (UniProt P49137); details: compound 1.0 µM
# MARK3 (human) = MARK3 (human) (UniProt P27448)
# MARK4 (human) = MARK4 (human) (UniProt Q96L34)
# MKNK2 (human) = MKNK2 (human) (UniProt Q9HBH9)
# MYLK (human) = MYLK (human) (UniProt Q15746)
# NEK6 (human) = NEK6 (human) (UniProt Q9HC98)
# [1] = tested on: PAK2 (human), Q13177 [T402E]
# PAK6 (human) = PAK6 (human) (UniProt Q9NQU5)
# PIM1 (human) = PIM1 (human) (UniProt P11309)
# PIM2 (human) = PIM2 (human) (UniProt Q9P1W9)
# PIM3 (human) = PIM3 (human) (UniProt Q86V86)
# PKN2 (human) = PKN2 (human) (UniProt Q16513)
# RPS6KA5 KD1 KD2 (human) = RPS6KA5 KD1 KD2 (human) (UniProt O75582)
# [2] = tested on: RPS6KB1 (human), P23443 [T412E]
# SRPK1 (human) = SRPK1 (human) (UniProt Q96SB4)
# STK3 (human) = STK3 (human) (UniProt Q13188)
# TBK1 (human) = TBK1 (human) (UniProt Q9UHD2)
# TTK (human) = TTK (human) (UniProt P33981)
# YES1 (human) = YES1 (human) (UniProt P07947)
# Chain of MARK3 (human) (P27448 whole entry, looked up): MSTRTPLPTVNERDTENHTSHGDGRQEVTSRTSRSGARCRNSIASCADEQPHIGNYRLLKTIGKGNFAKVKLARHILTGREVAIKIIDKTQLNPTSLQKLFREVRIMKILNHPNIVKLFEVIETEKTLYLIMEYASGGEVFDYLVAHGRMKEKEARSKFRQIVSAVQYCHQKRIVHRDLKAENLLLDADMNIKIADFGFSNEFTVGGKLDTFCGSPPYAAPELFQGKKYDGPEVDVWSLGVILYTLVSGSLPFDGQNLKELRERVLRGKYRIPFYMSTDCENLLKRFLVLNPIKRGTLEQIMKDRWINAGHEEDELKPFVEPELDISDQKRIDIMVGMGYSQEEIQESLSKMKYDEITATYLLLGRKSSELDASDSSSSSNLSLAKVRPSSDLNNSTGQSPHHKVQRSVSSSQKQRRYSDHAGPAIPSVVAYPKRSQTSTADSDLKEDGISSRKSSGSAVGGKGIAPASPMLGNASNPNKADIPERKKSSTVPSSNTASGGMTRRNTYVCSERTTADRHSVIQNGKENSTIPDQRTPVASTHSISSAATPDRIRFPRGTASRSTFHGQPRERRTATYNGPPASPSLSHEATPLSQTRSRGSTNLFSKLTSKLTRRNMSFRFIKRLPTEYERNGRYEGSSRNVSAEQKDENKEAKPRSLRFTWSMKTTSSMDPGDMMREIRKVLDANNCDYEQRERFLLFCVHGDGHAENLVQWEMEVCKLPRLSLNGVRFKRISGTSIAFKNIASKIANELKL
# Chain of MAP3K9 (human) (P80192 whole entry, looked up): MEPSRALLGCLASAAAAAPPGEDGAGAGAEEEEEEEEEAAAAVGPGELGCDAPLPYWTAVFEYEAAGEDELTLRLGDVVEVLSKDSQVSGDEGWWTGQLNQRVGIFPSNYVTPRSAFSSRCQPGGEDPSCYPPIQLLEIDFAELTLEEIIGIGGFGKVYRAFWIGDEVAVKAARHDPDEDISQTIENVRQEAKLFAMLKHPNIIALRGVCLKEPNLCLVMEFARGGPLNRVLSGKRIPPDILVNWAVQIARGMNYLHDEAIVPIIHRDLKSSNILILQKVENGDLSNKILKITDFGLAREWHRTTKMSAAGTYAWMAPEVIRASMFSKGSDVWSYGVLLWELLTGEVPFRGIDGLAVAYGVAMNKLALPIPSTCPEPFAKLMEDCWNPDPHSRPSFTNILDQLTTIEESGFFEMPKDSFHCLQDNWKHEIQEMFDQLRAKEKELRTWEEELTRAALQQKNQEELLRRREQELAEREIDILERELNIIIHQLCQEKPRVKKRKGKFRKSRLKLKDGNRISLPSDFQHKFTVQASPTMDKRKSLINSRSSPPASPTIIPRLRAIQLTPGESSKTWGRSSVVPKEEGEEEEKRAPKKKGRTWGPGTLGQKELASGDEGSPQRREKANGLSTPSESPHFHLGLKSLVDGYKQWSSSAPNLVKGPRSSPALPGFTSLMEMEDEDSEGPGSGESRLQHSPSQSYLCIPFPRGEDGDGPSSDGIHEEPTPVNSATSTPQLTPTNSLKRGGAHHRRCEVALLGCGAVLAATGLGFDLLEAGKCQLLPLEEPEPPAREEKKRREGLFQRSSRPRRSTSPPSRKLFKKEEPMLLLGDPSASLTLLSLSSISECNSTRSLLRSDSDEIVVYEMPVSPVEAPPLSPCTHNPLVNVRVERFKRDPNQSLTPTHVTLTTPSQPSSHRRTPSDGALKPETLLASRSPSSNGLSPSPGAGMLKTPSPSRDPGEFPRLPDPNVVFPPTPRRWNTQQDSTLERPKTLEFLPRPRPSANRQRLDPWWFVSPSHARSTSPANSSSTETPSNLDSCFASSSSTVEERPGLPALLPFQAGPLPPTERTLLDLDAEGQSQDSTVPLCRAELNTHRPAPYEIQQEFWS
# Chain of IKBKB (human) (O14920 whole entry, looked up): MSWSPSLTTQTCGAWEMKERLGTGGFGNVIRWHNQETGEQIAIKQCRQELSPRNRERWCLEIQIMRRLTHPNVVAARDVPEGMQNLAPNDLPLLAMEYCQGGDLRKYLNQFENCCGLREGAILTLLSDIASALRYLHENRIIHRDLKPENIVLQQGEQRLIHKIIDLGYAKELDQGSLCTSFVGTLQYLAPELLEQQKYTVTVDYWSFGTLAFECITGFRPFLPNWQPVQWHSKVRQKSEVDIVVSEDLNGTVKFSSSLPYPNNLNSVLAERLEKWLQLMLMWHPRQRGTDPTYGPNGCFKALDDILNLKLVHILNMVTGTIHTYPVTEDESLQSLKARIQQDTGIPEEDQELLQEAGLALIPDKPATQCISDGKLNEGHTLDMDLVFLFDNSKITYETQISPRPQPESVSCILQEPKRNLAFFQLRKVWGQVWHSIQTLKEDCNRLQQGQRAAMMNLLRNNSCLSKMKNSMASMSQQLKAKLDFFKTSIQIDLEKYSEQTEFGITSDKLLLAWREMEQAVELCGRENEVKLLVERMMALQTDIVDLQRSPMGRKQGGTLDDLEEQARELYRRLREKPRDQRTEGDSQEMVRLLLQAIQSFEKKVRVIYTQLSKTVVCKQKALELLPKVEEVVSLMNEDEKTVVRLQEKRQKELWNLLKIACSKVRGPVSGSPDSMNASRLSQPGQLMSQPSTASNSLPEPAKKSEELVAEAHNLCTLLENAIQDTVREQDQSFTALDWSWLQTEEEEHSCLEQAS
# Chain of STK3 (human) (Q13188 whole entry, looked up): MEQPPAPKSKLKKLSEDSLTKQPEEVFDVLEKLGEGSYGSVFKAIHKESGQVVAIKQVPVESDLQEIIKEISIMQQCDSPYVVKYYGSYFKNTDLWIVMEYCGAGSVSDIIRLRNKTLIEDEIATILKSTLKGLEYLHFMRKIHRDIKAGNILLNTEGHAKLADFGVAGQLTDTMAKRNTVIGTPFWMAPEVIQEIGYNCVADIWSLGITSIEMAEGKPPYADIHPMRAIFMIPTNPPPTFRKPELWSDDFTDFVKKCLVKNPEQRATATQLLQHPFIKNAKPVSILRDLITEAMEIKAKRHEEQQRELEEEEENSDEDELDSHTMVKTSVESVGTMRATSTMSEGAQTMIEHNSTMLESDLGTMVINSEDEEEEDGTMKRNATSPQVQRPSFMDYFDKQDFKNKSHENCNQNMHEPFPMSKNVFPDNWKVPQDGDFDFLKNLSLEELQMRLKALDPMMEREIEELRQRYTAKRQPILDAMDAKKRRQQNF
# Chain of DAPK1 (human) (P53355 whole entry, looked up): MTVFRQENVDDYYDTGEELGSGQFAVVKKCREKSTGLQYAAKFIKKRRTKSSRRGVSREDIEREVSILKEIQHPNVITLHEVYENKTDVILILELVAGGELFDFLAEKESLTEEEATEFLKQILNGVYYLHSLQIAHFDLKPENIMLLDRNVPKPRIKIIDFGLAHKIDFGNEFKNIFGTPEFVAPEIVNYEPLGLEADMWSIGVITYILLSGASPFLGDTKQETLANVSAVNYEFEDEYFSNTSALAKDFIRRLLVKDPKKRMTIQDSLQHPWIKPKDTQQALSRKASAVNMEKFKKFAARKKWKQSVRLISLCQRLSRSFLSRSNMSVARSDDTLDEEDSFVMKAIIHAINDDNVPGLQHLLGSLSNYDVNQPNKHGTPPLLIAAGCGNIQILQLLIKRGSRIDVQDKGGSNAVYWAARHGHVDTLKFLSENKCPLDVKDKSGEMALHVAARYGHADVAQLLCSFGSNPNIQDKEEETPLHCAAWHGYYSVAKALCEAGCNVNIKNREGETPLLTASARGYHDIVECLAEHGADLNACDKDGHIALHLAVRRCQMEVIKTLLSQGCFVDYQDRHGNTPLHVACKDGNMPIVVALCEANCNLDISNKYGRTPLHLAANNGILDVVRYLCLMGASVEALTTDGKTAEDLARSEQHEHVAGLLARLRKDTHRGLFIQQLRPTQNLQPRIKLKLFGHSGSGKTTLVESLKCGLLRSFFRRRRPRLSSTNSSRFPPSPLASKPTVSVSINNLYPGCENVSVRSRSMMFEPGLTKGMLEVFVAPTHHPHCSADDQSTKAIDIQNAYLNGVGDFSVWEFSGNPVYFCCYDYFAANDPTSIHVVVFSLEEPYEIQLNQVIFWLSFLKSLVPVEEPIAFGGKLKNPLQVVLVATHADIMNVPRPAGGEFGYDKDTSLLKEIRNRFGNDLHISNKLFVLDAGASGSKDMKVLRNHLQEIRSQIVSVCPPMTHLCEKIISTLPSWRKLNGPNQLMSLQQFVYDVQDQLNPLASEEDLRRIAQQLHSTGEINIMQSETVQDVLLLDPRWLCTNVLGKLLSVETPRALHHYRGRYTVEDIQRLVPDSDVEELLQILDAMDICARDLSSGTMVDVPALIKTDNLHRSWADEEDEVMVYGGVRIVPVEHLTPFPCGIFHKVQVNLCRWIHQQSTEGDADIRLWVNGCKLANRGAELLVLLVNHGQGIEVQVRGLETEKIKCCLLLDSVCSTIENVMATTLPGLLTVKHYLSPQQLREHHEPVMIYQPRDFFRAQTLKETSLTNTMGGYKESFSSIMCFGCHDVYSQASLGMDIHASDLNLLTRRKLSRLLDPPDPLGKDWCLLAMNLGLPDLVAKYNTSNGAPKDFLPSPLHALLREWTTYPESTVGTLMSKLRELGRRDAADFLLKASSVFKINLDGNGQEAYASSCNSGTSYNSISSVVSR
structure (smiles),measurement,setting,value
CC(C)(C#N)c1ccc(N2C(=O)OCc3cnc4ccc(-c5cnc6ccccc6c5)cc4c32)cc1,residual activity,CDK2 CCNA2 (human); compound 1.0 µM,90%
same,residual activity,CDK2 CCNA2 (human); compound 10.0 µM,85%
same,residual activity,CHEK1 (human); compound 1.0 µM,81%
same,residual activity,CHEK1 (human); compound 10.0 µM,100%
same,residual activity,CSNK2A1 (human); compound 1.0 µM,97%
same,residual activity,CSNK2A1 (human); compound 10.0 µM,97%
same,residual activity,DAPK1 (human); compound 1.0 µM,84%
same,residual activity,DAPK1 (human); compound 10.0 µM,88%
same,residual activity,EEF2K (human); compound 1.0 µM,99%
same,residual activity,EEF2K (human); compound 10.0 µM,109%
same,residual activity,EPHA4 (human); compound 1.0 µM,89%
same,residual activity,EPHA4 (human); compound 10.0 µM,89%
same,residual activity,EPHB1 (human); compound 1.0 µM,93%
same,residual activity,EPHB1 (human); compound 10.0 µM,119%
same,residual activity,EPHB4 (human); compound 1.0 µM,102%
same,residual activity,EPHB4 (human); compound 10.0 µM,96%
same,residual activity,GCK (human); compound 1.0 µM,22%
same,residual activity,GCK (human); compound 10.0 µM,11%
same,residual activity,IKBKB (human); compound 1.0 µM,86%
same,residual activity,IKBKB (human); compound 10.0 µM,87%
same,residual activity,INSRR (human); compound 1.0 µM,74%
same,residual activity,INSRR (human); compound 10.0 µM,77%
same,residual activity,MAP2K1 (human); compound 1.0 µM,78%
same,residual activity,MAP2K1 (human); compound 10.0 µM,96%
same,residual activity,MAP2K2 (human); compound 1.0 µM,87%
same,residual activity,MAP2K2 (human); compound 10.0 µM,75%
same,residual activity,MAP3K5 (human); compound 1.0 µM,117%
same,residual activity,MAP3K5 (human); compound 10.0 µM,111%
same,residual activity,MAP3K9 (human); compound 1.0 µM,91%
same,residual activity,MAP3K9 (human); compound 10.0 µM,89%
same,residual activity,MAPK9 (human),97%
same,residual activity,MAPKAPK2 (human),115%
same,residual activity,MARK3 (human); compound 1.0 µM,93%
same,residual activity,MARK3 (human); compound 10.0 µM,102%
same,residual activity,MARK4 (human); compound 1.0 µM,100%
same,residual activity,MARK4 (human); compound 10.0 µM,86%
same,residual activity,MKNK2 (human); compound 1.0 µM,94%
same,residual activity,MKNK2 (human); compound 10.0 µM,99%
same,residual activity,MYLK (human); compound 1.0 µM,87%
same,residual activity,MYLK (human); compound 10.0 µM,100%
same,residual activity,NEK6 (human); compound 1.0 µM,83%
same,residual activity,NEK6 (human); compound 10.0 µM,40%
same,residual activity,[1]; compound 1.0 µM,95%
same,residual activity,[1]; compound 10.0 µM,107%
same,residual activity,PAK6 (human); compound 1.0 µM,98%
same,residual activity,PAK6 (human); compound 10.0 µM,110%
same,residual activity,PIM1 (human); compound 1.0 µM,81%
same,residual activity,PIM1 (human); compound 10.0 µM,73%
same,residual activity,PIM2 (human); compound 1.0 µM,91%
same,residual activity,PIM2 (human); compound 10.0 µM,96%
same,residual activity,PIM3 (human); compound 1.0 µM,67%
same,residual activity,PIM3 (human); compound 10.0 µM,55%
same,residual activity,PKN2 (human); compound 1.0 µM,90%
same,residual activity,PKN2 (human); compound 10.0 µM,84%
same,residual activity,RPS6KA5 KD1 KD2 (human); compound 1.0 µM,74%
same,residual activity,RPS6KA5 KD1 KD2 (human); compound 10.0 µM,53%
same,residual activity,[2]; compound 1.0 µM,91%
same,residual activity,[2]; compound 10.0 µM,96%
same,residual activity,SRPK1 (human); compound 1.0 µM,90%
same,residual activity,SRPK1 (human); compound 10.0 µM,89%
same,residual activity,STK3 (human); compound 1.0 µM,64%
same,residual activity,STK3 (human); compound 10.0 µM,49%
same,residual activity,TBK1 (human); compound 1.0 µM,83%
same,residual activity,TBK1 (human); compound 10.0 µM,96%
same,residual activity,TTK (human); compound 1.0 µM,91%
same,residual activity,TTK (human); compound 10.0 µM,86%
same,residual activity,YES1 (human); compound 1.0 µM,92%
same,residual activity,YES1 (human); compound 10.0 µM,93%
